Data reported in paper PMC10051705, “Leishmanicidal Activity of Guanidine Derivatives against Leishmania infantum” (Tropical Medicine and Infectious Disease, 2023).
Marks after values point to notes of the source that are not given here.

Tests used:
[1] = system: L. infantum promastigotes; experiment: apoptosis/necrosis profiling, annexin V/PI staining, promastigotes; format: cell-based, Leishmania infantum
Protocol: (§1) To evaluate both apoptosis and necrosis, promastigote forms of L. infantum in the log phase of growth were incubated at several concentrations based on the IC50 values of LQOFG-2 (6.35; 12.7, 25.4, and 50.8 µM) LQOFG-6 (12.2, 24.4, 48.8 and 97.6 µM), and LQOFG-7 (11.65, 23.3, 46.6 and 93.2 µM), and AmB (1.5 and 6 µM) was used as the positive control. The plates were incubated for 24 h at 26 °C ± 1 °C in a B.O.D. incubator. After incubation, the promastigotes were washed three times in cold PBS, resuspended in binding buffer (10-mM HEPES, 140-mM NaCl, and 2.5-mM CaCl2, pH 7.4), and stained using a FITC Annexin V/Dead Cell Apoptosis Kit (BD Biosciences, San Jose, CA, USA) according to the manufacturer’s instructions. The stained cells were diluted and suspended in an Annexin V binding buffer (BD Biosciences, San Jose, CA, USA). Annexin V-FITC/propidium iodide (PI)-stained cells were analyzed using a BD FACSCanto II flow cytometer (BD Biosciences, San Jose, CA, USA). The raw data were analyzed using FlowJo 10.0.7 software (TreeStar Inc., Ashland, OR, USA).

[2] = system: L. infantum axenic amastigotes; experiment: axenic amastigote inhibition assay (MTT); format: cell-based; conditions: Leishmania infantum, 24 h; for EC50: 37 °C, pH 5.5, MTT
[3] = system: L. infantum axenic amastigotes; experiment: apoptosis/necrosis profiling, annexin V/PI staining, axenic amastigotes; format: cell-based, Leishmania infantum
Protocol: as §1
To evaluate both apoptosis and necrosis of the amastigote-like forms of L. infantum, the protocol was followed. In each well, amastigotes were treated with the guanidine compounds and controls.

[4] = in vitro cytotoxicity in PBMC (MTT); format: cell-based, human; conditions: both sexes, human, peripheral blood mononuclear cells (PBMCs), human PBMC, 24 h, MTT
Protocol: In vitro cytotoxicity was evaluated using peripheral blood mononuclear cells (PBMCs) collected from three healthy volunteers (2 males, mean age 33; and 1 person). PBMCs were separated by density gradient using Ficoll Paque PLUS (GE Healthcare, USA), pelleted by centrifugation (400× g for 40 min), and resuspended in RPMI 1640 medium, then supplemented with 10% fetal bovine serum and 1% antibiotic solution (penicillin 5000 Units/mL + streptomycin 5000 μg/mL). After 24 h of treatment, cell viability was evaluated by the modified colorimetric method based on the tetrazolium dye MTT (3-(4,5-dimethylthiazol-2-yl)-2,5- diphenyltetrazolium bromide). The MTT assay was used for in vitro cytotoxicity as previously described with the following modifications: cells were exposed to serially diluted concentrations of LQOFG-2, LQOFG-6, LQOFG-7 (1000 to 7.8 µM), and AmB (100 to 0.78 µM). The plates were kept at 37 °C for 24 h. MTT (5 mg/mL) was added and incubated for 4 h at 37 °C, after which the plates were centrifuged, the supernatant was discarded, and DMSO was added, leaving the plates under stirring to solubilize the formazan salts. Absorbance was measured at 540 nm using a plate reader (ELx800; Curitiba, PR, Brazil). The mean percentage of viable cells was calculated relative to the untreated control.

[5] = system: L. infantum promastigotes; experiment: promastigote growth inhibition assay (MTT); format: cell-based; conditions: Leishmania infantum, 72 h, 26 °C
Protocol: The promastigote forms of Leishmania (Leishmania) infantum [IOC/L0579(MHOM/BR/1974/PP75)] were cultured in Schneider’s medium, pH 7.0, supplemented with 20% heat-inactivated fetal bovine serum (FBS), 2% male human urine, 100 U/mL of penicillin, and 100 mg/L of streptomycin, and the parasites were maintained at 26 °C. The procedure to obtain the extracellular axenic amastigote form of L. infantum was based on methods previously described that were modified using a Schneider medium readjusted to pH 5.5 at 37 °C. The culture of promastigote forms in the stationary phase was centrifuged, and the medium of these cells was replaced and differentiated into axenic amastigotes by temperature and medium pH changes. Parasites were maintained in culture for no more than 20 passages.
The promastigote growth inhibition assay was performed as previously described. Promastigotes were harvested during the exponential growth phase. They were incubated in the presence and absence of several concentrations of LQOFG-2, LQOFG-6, LQOFG-7 (500 to 7.8 µM), and AmB (10 to 0.078 µM) as the positive control. The plate was incubated at 26 °C for 72 h in a biological oxygen demand (B.O.D.) incubator using a Schneider’s medium (Schneider’s Insect Medium 24.5 g/L; L-glutamine 1.8 g/L; glucose 2 g/L and sodium bicarbonate 0.4 g/L; Sigma-Aldrich—St. Louis—USA) supplemented. The growth inhibition was evaluated using an MTT assay kit (Amresco, Solon, OH, USA) according to the manufacturer’s protocol. After 4 h of incubation, 10% sodium dodecyl sulfate was added to dissolve the formazan crystals. The absorbance (540 nm) was measured using a plate reader (Biosystems model ELx800; Curitiba, PR, Brazil). […] Three independent experiments we performed in triplicate.

human red blood cells = experiment: red blood cell lysis assay; format: cell-based; conditions: 1 h, 37 °C
Protocol: The hemolytic activities of guanidine compounds were measured using human red blood cells from healthy adults (n = 3) according to methods previously described. Briefly, 80 µL of a 5% erythrocyte/phosphate-buffered saline (PBS) suspension was mixed with 20 µL of LQOFG-2, LQOFG-6, LQOFG-7, (1000 to 7.8 µM), and AmB (100 to 0.78 µM). After incubation at 37 °C for 1 h, 200 µL of PBS (1.5 mM KH2PO4, 8.1 mM Na2HPO4, 136.9 mM NaCl, and 2.6 mM KCl, pH 7.2) was added to stop the hemolysis process, and the samples were centrifuged for 10 min at 1000× g. The supernatants were collected, and the extent of hemolysis was measured spectrophotometrically at 540 nm. The hemolysis percentage was determined as [(Abssam − Abscon)/(Abstot − Abscon) × 100], where Abssam is the absorbance of the sample, Abscon is the absorbance of the blank control (without drugs), and Abstot is the absorbance of total hemolysis (replacing the sample solution with an equal volume of ultrapure water (Direct-Q UV®, Guyancourt, France)).

| SMILES | % cells, Early Apoptosis (AV+, PI−) ([1]; 1× IC50, 24 h) | % cells, Late Apoptosis (AV+, PI+) ([1]; 1× IC50, 24 h) | % cells, Necrosis (AV−, PI+) ([1]; 1× IC50, 24 h) | % cells, Early Apoptosis (AV+, PI−) ([1]; 4× IC50, 24 h) | % cells, Late Apoptosis (AV+, PI+) ([1]; 4× IC50, 24 h) | EC50 [2] | % cells, Early Apoptosis (AV+, PI−) ([3]; 1 × EC50, 24 h) | % cells, Late Apoptosis (AV+, PI+) ([3]; 1 × EC50, 24 h) | % cells, Necrosis (AV−, PI+) ([3]; 1 × EC50, 24 h) | % cells, Early Apoptosis (AV+, PI−) ([3]; 4 × EC50, 24 h) | % cells, Late Apoptosis (AV+, PI+) ([3]; 4 × EC50, 24 h) | % cells, Necrosis (AV−, PI+) ([3]; 4 × EC50, 24 h) | CC50 at 24 h [4] | IC50 [5] | HC50, toxicity to red blood cells (human red blood cells) | further results |
| --- | --- | --- | --- | --- | --- | --- | --- | --- | --- | --- | --- | --- | --- | --- | --- | --- |
| C[C@@H]1[C@H](O)[C@@H](C)/C=C/C=C/C=C/C=C/C=C/C=C/C=C/[C@H](O[C@@H]2O[C@H](C)[C@@H](O)[C@H](N)[C@@H]2O)C[C@@H]2O[C@](O)(C[C@@H](O)C[C@@H](O)[C@H](O)CC[C@@H](O)C[C@@H](O)CC(=O)O[C@H]1C)C[C@H](O)[C@H]2C(=O)O [Amphotericin B, reference compound] | 0.67 ± 0.27% | 4.30 ± 0.28% | 7.64 ± 1.17% | 0.27 ± 0.09% | 65.83 ± 1.85% | 0.3 µM | 4.73 ± 0.97% | 57.50 ± 1.72 ^d % | 11.52 ± 1.89% | 0.60 ± 0.42% | 97.87 ± 1.01 ^d % | 0.96 ± 0.33 ^d % | 53.9 ± 3.59 µM | 1.5 ± 0.23 µM | 7.10 ± 2.09 µM | % cells, Necrosis (AV−, PI+) ([1]; 4× IC50, 24 h): 33.10 ± 1.90%; % cells, Late Apoptosis (AV+, PI+) ([3]; 1 × EC50, 24 h, listed as AmB): 57.50 ± 1.72%; % cells, Late Apoptosis (AV+, PI+) ([3]; 4 × EC50, 24 h, listed as AmB): 97.87 ± 1.01% |
| O=C(/N=C(/NCc1ccccc1)Nc1ccc(I)cc1)c1ccccc1 [LQOFG-7, (Z)-N-((benzylamine)((4-iodophenyl)amino)methylene)benzamide] | 0.77 ± 0.04% | 0.41 ± 0.08% | 1.19 ± 0.12% | 0.39 ± 0.08% | 0.18 ± 0.07% | 18.6 ± 1.23 µM | 5.84 ± 0.57 ^b % | 44.20 ± 1.01 ^d % | 13.53 ± 0.32% | 8.01 ± 0.14 ^d % | 63.27 ± 0.59 ^d % | 12.27 ± 0.48% | 745.5 ± 3.58 µM | 23.6 ± 0.64 µM | >1000 µM | % cells, Early Apoptosis (AV+, PI−) ([1]; 0.5× IC50, 24 h): 0.28 ± 0.05%; % cells, Late Apoptosis (AV+, PI+) ([1]; 0.5× IC50, 24 h): 0.47 ± 0.07%; % cells, Necrosis (AV−, PI+) ([1]; 0.5× IC50, 24 h): 0.87 ± 0.17%; % cells, Early Apoptosis (AV+, PI−) ([1]; 2× IC50, 24 h): 0.76 ± 0.10%; % cells, Late Apoptosis (AV+, PI+) ([1]; 2× IC50, 24 h): 0.26 ± 0.09%; inhibition at 31.2 µM ([2]; at 31.2 µM, read-out: inhibition of axenic amastigotes compared to the control (untreated)): 58%; % cells, Early Apoptosis (AV+, PI−) ([3]; 0.5 × EC50, 24 h): 5.56 ± 0.46 ^a %; % cells, Late Apoptosis (AV+, PI+) ([3]; 0.5 × EC50, 24 h): 35.53 ± 3.13 ^c %; % cells, Necrosis (AV−, PI+) ([3]; 0.5 × EC50, 24 h): 9.83 ± 1.27%; % cells, Early Apoptosis (AV+, PI−) ([3]; 2 × EC50, 24 h): 10.02 ± 1.53 ^d %; % cells, Late Apoptosis (AV+, PI+) ([3]; 2 × EC50, 24 h): 36.70 ± 10.35 ^d %; % cells, Necrosis (AV−, PI+) ([3]; 2 × EC50, 24 h): 5.63 ± 1.24% |
